These results are taken from patent US10329303B2, “Heterocyclic inhibitors of monocarboxylate transporter” (THE SCRIPPS RESEARCH INSTITUTE, priority 2015, dated 2019).

pEC50: −log10 of the molar value.

The assay relates to Raji (Burkitt's) lymphoma cells. In words: MTT assay for 4-day viability of Raji (Burkitt's) lymphoma cells. The format is cell-based. The conditions noted are these: Homo sapiens, 96 h, Raji cells (highly express MCT1), read-out: approximate potency (EC50). An excerpt: Specific Examples 1-52 of compounds of the invention, with estimated EC50 values determined using an MTT assay for 4-day viability of Raji (Burkitt's) lymphoma cells, a cell line known to highly express MCT1 and to be sensitive to small molecule MCT inhibitors,^4 are shown in Table 2. Assay protocols follow those described in the literature.^4 Other assays that are not described here but that are standard in the field, such as an assay for competitive inhibition of transport of radiolabeled lactic acid, an MCT substrate, may also be useful in establishing mechanism of action of these compounds.
By pEC50 is commonly meant the EC50 on a negative log10 scale, so that one unit is a factor of ten. Consider `CC(C)Cc1nn(C)c(=O)c2c(-c3cc(CO)ccc3Cl)n(Cc3cccc4ccccc34)cc12` [Example 30, 7-(2-chloro-5-(hydroxymethyl)phenyl)-4-isobutyl-2-methyl-6-(naphthalen-1-ylmethyl)-2,6-dihydro-1H-pyrrolo[3,4-d]pyridazin-1-one], for which the pEC50 is 6.22.

Consider `CC(C)Cc1nn(C)c(=O)c2c(-c3cccc(CO)c3)n(Cc3cccc4ccccc34)cc12` [Example 31, 7-(3-(hydroxymethyl)phenyl)-4-isobutyl-2-methyl-6-(naphthalen-1-ylmethyl)-2,6-dihydro-1H-pyrrolo[3,4-d]pyridazin-1-one], for which the pEC50 was 7.00.

`CC(C)Cc1nn(C)c(=O)c2c(-c3cncc(CO)c3)n(Cc3cccc4ccccc34)cc12` [Example 32, 7-(5-(hydroxymethyl)pyridin-3-yl)-4-isobutyl-2-methyl-6-(naphthalen-1-ylmethyl)-2,6-dihydro-1H-pyrrolo[3,4-d]pyridazin-1-one]: the pEC50 was 6.05. The figure for `CC(C)Cc1nn(C)c(=O)c2c(-c3csc(C(C)O)c3)n(Cc3cccc4ccccc34)cc12` (centres unmarked) [Example 33, 7-(5-(1-hydroxyethyl)thiophen-3-yl)-4-isobutyl-2-methyl-6-(naphthalen-1-ylmethyl)-2,6-dihydro-1H-pyrrolo[3,4-d]pyridazin-1-one] is 7.15. As for `CC(C)Cc1nn(C)c(=O)c2c(-c3cccc(C(C)O)n3)n(Cc3cccc4ccccc34)cc12` (centres unmarked) [Example 34, 7-(6-(1-hydroxyethyl)pyridin-2-yl)-4-isobutyl-2-methyl-6-(naphthalen-1-ylmethyl)-2,6-dihydro-1H-pyrrolo[3,4-d]pyridazin-1-one], the pEC50 was 6.00.

`CC(C)Cc1nn(C)c(=O)c2c(-c3cc(C(C)O)ccc3F)n(Cc3cccc4ccccc34)cc12` (centres unmarked) [Example 35, 7-(2-fluoro-5-(1-hydroxyethyl)phenyl)-4-isobutyl-2-methyl-6-(naphthalen-1-ylmethyl)-2,6-dihydro-1H-pyrrolo[3,4-d]pyridazin-1-one]: the pEC50 is 7.10. The value for `CC(C)Cc1nn(C)c(=O)c2c(-c3cccc(C(C)O)c3)n(Cc3cccc4ccccc34)cc12` (centres unmarked) [Example 36, 7-(3-(1-hydroxyethyl)phenyl)-4-isobutyl-2-methyl-6-(naphthalen-1-ylmethyl)-2,6-dihydro-1H-pyrrolo[3,4-d]pyridazin-1-one] was 7.00. The figure for `CC(C)Cc1nn(C)c(=O)c2c(-c3csc(C(O)C(F)(F)F)n3)n(Cc3cccc4ccccc34)cc12` (centres unmarked) [Example 37, 4-isobutyl-2-methyl-6-(naphthalen-1-ylmethyl)-7-(2-(2,2,2-trifluoro-1-hydroxyethyl)thiazol-4-yl)-2,6-dihydro-1H-pyrrolo[3,4-d]pyridazin-1-one] is 7.00; for `CC(C)Cc1nn(C)c(=O)c2c(-c3csc(C(O)C(F)(F)F)c3)n(Cc3cccc4ccccc34)cc12` (centres unmarked) [Example 38, 4-isobutyl-2-methyl-6-(naphthalen-1-ylmethyl)-7-(5-(2,2,2-trifluoro-1-hydroxyethyl)thiophen-3-yl)-2,6-dihydro-1H-pyrrolo[3,4-d]pyridazin-1-one] it is no less than 7.70; for `CC(C)Cc1nn(C)c(=O)c2c(-c3ccc(C(O)C(F)(F)F)s3)n(Cc3cccc4ccccc34)cc12` (centres unmarked) [Example 39, 4-isobutyl-2-methyl-6-(naphthalen-1-ylmethyl)-7-(5-(2,2,2-trifluoro-1-hydroxyethyl)thiophen-2-yl)-2,6-dihydro-1H-pyrrolo[3,4-d]pyridazin-1-one] it is 7.05. The value for `CC(C)Cc1nn(C)c(=O)c2c(-c3cccc(C(O)C(F)(F)F)c3)n(Cc3cccc4ccccc34)cc12` (centres unmarked) [Example 40, 4-isobutyl-2-methyl-6-(naphthalen-1-ylmethyl)-7-(3-(2,2,2-trifluoro-1-hydroxyethyl)phenyl)-2,6-dihydro-1H-pyrrolo[3,4-d]pyridazin-1-one] was 7.30.
